In ChEMBL document CHEMBL1156661, “Myrtucommulones F-I, phloroglucinols with thyrotropin-releasing hormone receptor-2 binding affinity from the seeds of Corymbia scabrida” (J Nat Prod, 2008):
pIC50: −log10 of the molar value.

Test: Displacement of [H3]3-methylhistidylTRH from rat recombinant TRH2 receptor expressed in […] cells
Format: cell-based

SMILES	pIC50
CC(C)C(=O)c1c(O)c2c(c3c1O[C@@]1(O)[C@@H](C(O)C(C)(C)C(=O)C1(C)C)[C@@H]3C(C)C)OC1=C(C(=O)C(C)(C)C(=O)C1(C)C)[C@@H]2C(C)C (stereo partly specified) [MYRTUCOMMULONE D]	4.96
CCCCCC(=O)c1c(O)c2c(c3c1O[C@@]1(O)[C@@H](C(O)C(C)(C)C(=O)C1(C)C)[C@@H]3C(C)C)OC1=C(C(=O)C(C)(C)C(=O)C1(C)C)[C@@H]2C(C)C (stereo partly specified) [MYRTUCOMMULONE G]	4.62
CCCCCC(=O)c1c(O)c2c(c3c1O[C@@]1(O)[C@@H](C(O)C(C)(C)C(=O)C1(C)C)[C@@H]3C(C)C)OC1=C(C(=O)C(C)(C)C(=O)C1(C)C)[C@@H]2CC(C)C (stereo partly specified) [MYRTUCOMMULONE I]	4.80

Now from value to molecule:

pIC50	SMILES
4.41	CC(C)C(=O)c1c(O)c([C@H](C2=C(O)C(C)(C)C(=O)C(C)(C)C2=O)C(C)C)c(O)c([C@H](C2=C(O)C(C)(C)C(=O)C(C)(C)C2=O)C(C)C)c1O [MYRTUCOMMULONE A]
4.80	CCCCCC(=O)c1c(O)c([C@H](C2=C(O)C(C)(C)C(=O)C(C)(C)C2=O)C(C)C)c(O)c([C@H](C2=C(O)C(C)(C)C(=O)C(C)(C)C2=O)C(C)C)c1O [MYRTUCOMMULONE F]
4.51	CCCCCC(=O)c1c(O)c([C@@H](CC(C)C)C2=C(O)C(C)(C)C(=O)C(C)(C)C2=O)c(O)c([C@H](C2=C(O)C(C)(C)C(=O)C(C)(C)C2=O)C(C)C)c1O [MYRTUCOMMULONE H]
